“Also recorded” adds a separate entry of the source.

The record followed here is patent publication US12564622B2, “Preventing cytokine release syndrome” (priority 2017, dated 2026).

Assay [1] deals with polymicrobial peritoneal sepsis induced by CLP. As to the kind of experiment: Cecal ligation and puncture (CLP) sepsis. It is filed as in vivo, mouse (C57BL/6). The note with it: ANP given after CLP.
Assay [2] relates to anti-CD3 antibody-induced CRS in BALB/c mice. Description: Anti-CD3 treatment induced CRS. It is filed as in vivo, mouse (BALB/c). The protocol:
(§1) Metyrosine was freshly dissolved in PBS and injected IP at 60 mg/kg/day for three days prior to injection of anti-CD3 antibodies. […] Thirty minutes before the IP injection of the anti-mouse CD3 antibody (BioXcell, 145-2C11), metyrosine was IP injected at 60 mg/kg into the contralateral side. A single additional dose of 30 mg/kg metyrosine was injected IP on the following day. Control groups were injected with PBS at the same times.
as §1, with “times. For experiments with conditional TH knockout mice, 4-6 week-old LysMcre: TH fl/fl (TH^ΔLysM) mice with C57BL/6 background were used and LysMcre: TH+/+ mice of the same age were used as control. In these experiments, 200 μg/mouse anti-mouse CD3 antibody was injected IP.” for “times.”

The test system of assay [3] is co-culture of hCART19 and Raji cells. As to the kind of experiment: In vitro co-culture of Raji and hCART19 cells. The assay is classed as cell-based, human. The note with it: Raji with hCART19 (1:5), 24 hours; metyrosine 2 mM or ANP 5 μg/ml. The text has this: Human CD19scFv-CD28-4-1BB-CD3ζ CAR-T cells (PM-CAR1003) were purchased from Promab Biotechnologies and maintained less than 7 days in AIM-V medium (GIBCO) supplemented with 300 IU/ml of hIL2 (Peprotech), 5% FBS and antibiotics (Car-T medium).

Assay [4] deals with Raji-bearing NSGS mice with high tumour burden treated with hCART19. Description: hCART19 treatment of Raji-bearing NSGS mice, high tumour burden. It is filed as in vivo, mouse (NSGS). An excerpt: Six to eight-week old female NSG-SGM3 mice (NOD.Cg-Prkdcscid Il2rgtm1Wjl Tg(CMVIL3,CSF2,KITLG)1Eav/MloySzJ, Stock #013062) were purchased from the Jackson Laboratory. Raji cells were transfected with a luciferase construct via lentivirus to create Raji-luc cells as described elsewhere (Bai et al., 2015 Neuro Oncol., 17:545). Human CD19scFv-CD28-4-1BB-CD3ζ CART cells (PM-CAR1003, CART19) from Promab Biotechnologies were maintained for less than 7 days in AIM-V medium (GIBCO) supplemented with 300 IU/ml of hIL2 (Peprotech), 5% FBS and antibiotics. One day before the injection of Raji cells, mice were irradiated at a dose of 2 Gy in a CIXD Xstahl device. One million Raji-luc cells were injected IV via tail vein on day zero. Six days later, tumor loads were assessed using a Xenogen instrument and 15×10^6 CART19 cells were injected IV. Metyrosine was injected IP at 60 mg/kg/day for three days before the CART19 injection. On the day of CART19 injection, a fourth dose of 60 mg/kg was given IP and the mice were subsequently injected four more times at daily intervals at 30 mg/kg.
Six to eight weeks old female NSG-SGM3 (NSGS) mice (NOD.Cg-Prkdcscid Il2rgtm1WjlTg (CMV-IL3, CSF2, KITLG) 1Eav/MloySzJ, Stock #013062) were purchased from the Jackson Laboratory. Raji cells were transfected with a luciferase construct via lentivirus to create Raji-luc cells. NSGS is a triple transgenic strain expressing human IL3, GM-CSF and SCF combine the features of the highly immunodeficient NOD scid gamma (NSG) mouse. One day before the injection of Raji cells, mice were irradiated at a dose of 2 Gy in a CIXD Xstahl device. In high tumor burden experiments in FIG. 5, 10^6 Raji-luc cells were injected IV via tail vein. Six days later, tumor loads were assessed using a Xenogen instrument and 15×10^6 hCART19 cells or untransduced T-cells were injected IV. In low tumor burden experiments in FIG. 6, 2×10^5 Raji-luc cells were injected IV via tail vein. Four days later, tumor loads were assessed using a Xenogen instrument and 15×10^6 hCART19 cells were injected IV. Metyrosine was injected IP at 60 mg/kg/day for three days before the hCART19 injection. On the day of CART19 injection, a fourth dose of 60 mg/kg was given IP and the mice were subsequently injected four more times at daily intervals at 30 mg/kg.

Setting [5] is: 24 hours after anti-CD3, metyrosine pre-treatment.
[6] abbreviates: 24 and 72 hours after hCART19, metyrosine pre-treatment.

As for `CC[C@H](C)[C@@H]1NC(=O)[C@H](CCCNC(=N)N)NC(=O)[C@H](CC(=O)O)NC(=O)[C@H](CCSC)NC(=O)[C@H](CCCNC(=N)N)NC(=O)CNC(=O)CNC(=O)[C@H](Cc2ccccc2)NC(=O)[C@@H](NC(=O)[C@H](CO)NC(=O)[C@H](CO)NC(=O)[C@H](CCCNC(=N)N)NC(=O)[C@H](CCCNC(=N)N)NC(=O)[C@H](CC(C)C)NC(=O)[C@@H](N)CO)CSSC[C@@H](C(=O)N[C@@H](CC(N)=O)C(=O)N[C@@H](CO)C(=O)N[C@@H](Cc2ccccc2)C(=O)N[C@@H](CCCNC(=N)N)C(=O)N[C@@H](Cc2ccc(O)cc2)C(=O)O)NC(=O)CNC(=O)[C@H](CC(C)C)NC(=O)CNC(=O)[C@H](CO)NC(=O)[C@H](CCC(N)=O)NC(=O)[C@H](C)NC(=O)CNC1=O` [ANP, atrial natriuretic peptide], in assay [1], the “survival after CLP, treatment after rather than before CLP” value is reported as “did not rescue the mice”.
Regarding `C[C@](N)(Cc1ccc(O)cc1)C(=O)O` [metyrosine, α-methyl-tyrosine], in assay [2] (setting [5]), the “IL-2 and IFN-γ” value is listed as “not significantly affected”; the circulating catecholamines entry is listed as “reduced to near normal levels; also recorded: significantly reduced”; the “pro-inflammatory cytokines (IL-6, TNF-α, KC, MIP-2, MIP-1α)” value is given as “major reductions”. Moreover, the “mice surviving (of mice pre-treated)” value in assay [2] (anti-CD3 125 μg/mouse, metyrosine pre-treatment) is “eleven of the twelve; also recorded: twelve of the fifteen”. Moreover, in assay [3], the catecholamine production result is reported as “significantly decreased; also recorded: suppressed the catecholamine surge” and the cytokine production result was “significantly decreased; also recorded: blocked”. Besides, in assay [4] (setting [6]), the circulating catecholamines entry is listed as “significantly reduced; also recorded: significantly lower”; the “circulating human and mouse cytokines” value was “significantly reduced; also recorded: significantly lowered”. The circulating catecholamines result in assay [4] (24 and 72 hours after hCART19, metyrosine pre-treatment, listed as Metyrosine) is recorded as “able to block that effect”. Besides, in assay [4] (high tumour burden, hCART19 plus metyrosine), the final outcome is given as “eventually died with progressive lymphoma”. Moreover, the plasma dopamine result in assay [4] (two time points after CART19 treatment) is given as “able to reduce dopamine production”.
